Experimental data from patent US12612358B2, “Resorcinol-based compounds and uses thereof” (priority 2020, dated 2026).
pIC50: −log10 of the molar value.

What was measured:
[1] = system: PANC-1 tumors; assay: PANC-1 subcutaneous xenograft in athymic nu/nu mice; type: in vivo
[2] = system: MDA-MB231 D3H; assay: CellTiter-Glo viability/proliferation assay, MDA-MB231 breast cancer cells; type: cell-based; settings: Homo sapiens, MDA-MB-231, 48 h; CellTiter-Glo, two-day treatment; read-out: Inhibition of MDA-MB231 D3H
[3] = system: 468 kinases; assay: Eurofin's Kinome scan assay; settings: 1 μM and 10 μM
Method: (§3) Eurofin's Kinome scan assay was used to screen Compound-5B against 468 kinases at 1 μM and 10 μM concentrations. […] In order to understand any potential pharmacological cross reactivity, a known contributor to clinical adverse drug reactions Compound-5B was tested in SAFETY scan E/IC50 ELECT.

[4] = biological target: T1, ADRB2 (β-Adrenergic receptor) (Homo sapiens, UniProt P07550); assay: SAFETY scan E/IC50 ELECT, ADRB2; type: biochemical; settings: read-out: inhibition against ADRB2 (mild)
T1 construct: purchased Eurofin's

[5] = system: Id-1; assay: Id-1 expression in MDA-MB231 cells (Western analysis); type: cell-based, human
Method: Quantitative Western analysis: Cells are cultured and treated in 6-well dishes. After the cells are washed twice with cold PBS, lysis buffer is added. The cells are then lysed by freezing for 10 min at −70° C. and then thawing at ambient temperature. The cell lysate is collected and the protein content is determined by using Bradford reagent. Equal amounts of protein are heated at 90° C. in Laemmli sample buffer which also included β-mercaptoethanol. The samples are then loaded onto a precast SDS-PAGE gel (Bio-Rad Laboratories, Hercules, CA). After which, proteins are then electroblotted onto an Immobilon membrane (Millipore, Billerica, MA) overnight at 2-4° C. The membrane is then blocked for 1 hour with 5% nonfat dry milk which included TBS+Tween. The membranes are then incubated with an anti-Id-1 primary antibody, and then an appropriate secondary antibody was used. Blots are incubated for 45 min and then washed 4 times with TBS+Tween for 15 min each. […]
Effects of Compound-5B on breast cancer cell proliferation, Id-1 expression and invasion in culture. […] The ability of the cells to migrate and invade in modified Boyden chambers was determined. The percentage relative invasion was calculated as the effect on treated cells/vehicle cells×100. […]

[6] = Aqueous solubility (Eurofins ADME); type: physicochemical
Method: (§1) Evaluating ADME of Compound-5B in vitro. It is important to evaluate ADME first in culture as it allows for the selection of the best candidate for PK analysis in vivo. ADME analysis of Compound-5B was performed by Eurofins.

[7] = biological target: T2, CYP2C8 (Homo sapiens, UniProt P10632); assay: CYP2C8 inhibition; type: in vitro ADME; settings: 10 μM
T2 construct: purchased Eurofins
Method: as §1

[8] = biological target: T3, HRH2 (Histamine receptor) (Homo sapiens, UniProt P25021); assay: SAFETY scan E/IC50 ELECT, HRH2; type: biochemical; settings: read-out: inhibition against HRH2 (mild)
T3 construct: purchased Eurofin's

[9] = system: cannabinoid receptors; assay: Cannabinoid receptor binding
Method: as §3

[10] = system: BXPC-3; assay: CellTiter-Glo cell proliferation, BxPC-3 pancreatic cancer cells; type: cell-based; settings: Homo sapiens, read-out: IC50 category
Excerpt: Cell culture and treatment of pancreatic cancer cell lines: Pancreatic cancer cells lines BxPC-3, SW1990, and PANC-1 used in the experiments presented herein can be obtained from ATCC. The cells can be cultured and passaged in complete growth medium (RPMI-1640, Dulbecco's Modified Eagle Medium, or Leibovitz's L-15 medium) that has been supplemented with fetal bovine serum to a final concentration of 10%.
Effects of Compound-5B on proliferation and Id-1 expression in pancreatic cell lines. Compound-5B was next tested for inhibition of cell viability/proliferation in the three pancreatic cancer cell lines and two primary patient-derived cancer cell lines. Compound-5B inhibited cell viability/proliferation of all the cancer cell lines (Table 2). The culturing condition for the pancreatic cell lines was similar to those used in the breast cancer lines, with the exception of the primary patient-derived pancreatic cancer cell lines (PANC9 and PANC13). […] Cell proliferation of pancreatic cells in the presence of drug was measured using the CellTiter-Glo luminescent Assay and IC50 values were calculated (Table 2). […]

[11] = system: CYP450 isoforms; assay: CYP450 isoform inhibition; type: in vitro ADME; settings: 1 μM
Method: as §1

[12] = system: PANC13; assay: CellTiter-Glo cell proliferation, patient-derived PANC13 tumorspheres; type: cell-based; settings: Homo sapiens, 72 h, three days treatment, read-out: IC50 category
Excerpt: (§2) Effects of Compound-5B on proliferation and Id-1 expression in pancreatic cell lines. Compound-5B was next tested for inhibition of cell viability/proliferation in the three pancreatic cancer cell lines and two primary patient-derived cancer cell lines. Compound-5B inhibited cell viability/proliferation of all the cancer cell lines (Table 2). The culturing condition for the pancreatic cell lines was similar to those used in the breast cancer lines, with the exception of the primary patient-derived pancreatic cancer cell lines (PANC9 and PANC13). For determining inhibition of cell proliferation in patient-derived pancreatic cancer cells were cultured in a T75 ultra low attachment flasks with DMEM/F12 media supplemented with B27, penicillin/streptomycin (10,000 u/mL), 50 µg/mL human epidermal growth factor (hEGF), 50 μg/mL human fibroblast growth factor, and 5 μg/mL heparin. Cells were plated in a 384-well plate and incubated for three days to promote the formation of tumorspheres. Cells were then treated with Compound-5B for three days. Cell proliferation of pancreatic cells in the presence of drug was measured using the CellTiter-Glo luminescent Assay and IC50 values were calculated (Table 2). The IC50 and corresponding 95% confidence limits (CL) were calculated using non-linear regression analysis.

[13] = system: PANC9; assay: CellTiter-Glo cell proliferation, patient-derived PANC9 tumorspheres; type: cell-based; settings: Homo sapiens, 72 h, three days treatment, read-out: IC50 category
Excerpt: as §2

[14] = Plasma protein binding (Eurofins ADME); type: in vitro ADME
Method: as §1

[15] = system: mouse 4T1 TNBC; assay: Cell proliferation, 4T1 TNBC cells; type: cell-based; settings: mouse 4T1 TNBC cells; read-out: IC50 group for inhibition of cell proliferation
[16] = biological target: T4, hERG (Homo sapiens, UniProt Q12809); assay: hERG channel inhibition; type: biochemical
T4 construct: purchased Eurofins
Method: as §1

[17] = biological target: T5, DRD1 (Dopamine receptor D1) (Homo sapiens, UniProt P21728); assay: SAFETY scan E/IC50 ELECT, DRD1; type: biochemical; settings: read-out: inhibition against DRD1 (mild)
T5 construct: purchased Eurofin's

[18] = biological target: T6, ADRB1 (β-Adrenergic receptor) (Homo sapiens, UniProt P08588); assay: SAFETY scan E/IC50 ELECT, ADRB1; type: biochemical; settings: read-out: inhibition against ADRB1 (mild)
T6 construct: purchased Eurofin's
T6 sequence (P08588 whole entry): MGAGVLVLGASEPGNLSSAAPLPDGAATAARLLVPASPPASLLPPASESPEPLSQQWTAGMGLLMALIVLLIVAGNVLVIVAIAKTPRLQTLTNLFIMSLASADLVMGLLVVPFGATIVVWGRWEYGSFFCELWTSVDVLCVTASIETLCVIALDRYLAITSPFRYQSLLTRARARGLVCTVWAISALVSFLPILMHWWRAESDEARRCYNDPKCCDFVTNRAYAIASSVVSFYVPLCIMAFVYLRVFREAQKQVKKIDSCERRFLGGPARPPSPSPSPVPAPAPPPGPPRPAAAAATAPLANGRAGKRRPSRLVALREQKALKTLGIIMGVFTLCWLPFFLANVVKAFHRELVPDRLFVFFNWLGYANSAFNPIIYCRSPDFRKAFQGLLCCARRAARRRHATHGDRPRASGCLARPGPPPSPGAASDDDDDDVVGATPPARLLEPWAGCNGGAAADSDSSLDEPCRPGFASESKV

T1 sequence (P07550 whole entry): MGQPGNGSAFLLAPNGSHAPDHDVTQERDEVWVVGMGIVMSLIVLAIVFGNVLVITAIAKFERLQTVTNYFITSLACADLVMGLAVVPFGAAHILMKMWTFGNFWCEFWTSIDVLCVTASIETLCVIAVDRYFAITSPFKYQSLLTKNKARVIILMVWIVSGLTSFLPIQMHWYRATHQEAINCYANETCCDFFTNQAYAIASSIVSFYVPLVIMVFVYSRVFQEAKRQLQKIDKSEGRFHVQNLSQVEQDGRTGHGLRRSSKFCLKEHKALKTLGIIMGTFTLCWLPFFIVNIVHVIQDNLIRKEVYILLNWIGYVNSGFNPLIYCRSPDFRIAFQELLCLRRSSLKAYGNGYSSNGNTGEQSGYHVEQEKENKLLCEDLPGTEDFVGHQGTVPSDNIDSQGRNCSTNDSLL
T5 sequence (P21728 whole entry): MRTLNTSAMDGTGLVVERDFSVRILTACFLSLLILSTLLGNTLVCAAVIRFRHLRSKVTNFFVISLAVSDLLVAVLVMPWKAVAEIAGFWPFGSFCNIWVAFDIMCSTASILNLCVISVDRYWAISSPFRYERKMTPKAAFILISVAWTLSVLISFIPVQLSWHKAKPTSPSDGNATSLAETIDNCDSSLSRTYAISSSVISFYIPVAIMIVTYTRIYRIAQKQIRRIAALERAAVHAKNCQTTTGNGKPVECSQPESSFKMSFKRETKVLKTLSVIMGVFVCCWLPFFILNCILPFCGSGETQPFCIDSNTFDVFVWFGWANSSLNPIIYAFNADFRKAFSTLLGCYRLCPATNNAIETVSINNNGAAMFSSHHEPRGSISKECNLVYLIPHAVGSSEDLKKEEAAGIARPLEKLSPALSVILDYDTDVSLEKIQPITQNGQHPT
T4 sequence (Q12809 whole entry): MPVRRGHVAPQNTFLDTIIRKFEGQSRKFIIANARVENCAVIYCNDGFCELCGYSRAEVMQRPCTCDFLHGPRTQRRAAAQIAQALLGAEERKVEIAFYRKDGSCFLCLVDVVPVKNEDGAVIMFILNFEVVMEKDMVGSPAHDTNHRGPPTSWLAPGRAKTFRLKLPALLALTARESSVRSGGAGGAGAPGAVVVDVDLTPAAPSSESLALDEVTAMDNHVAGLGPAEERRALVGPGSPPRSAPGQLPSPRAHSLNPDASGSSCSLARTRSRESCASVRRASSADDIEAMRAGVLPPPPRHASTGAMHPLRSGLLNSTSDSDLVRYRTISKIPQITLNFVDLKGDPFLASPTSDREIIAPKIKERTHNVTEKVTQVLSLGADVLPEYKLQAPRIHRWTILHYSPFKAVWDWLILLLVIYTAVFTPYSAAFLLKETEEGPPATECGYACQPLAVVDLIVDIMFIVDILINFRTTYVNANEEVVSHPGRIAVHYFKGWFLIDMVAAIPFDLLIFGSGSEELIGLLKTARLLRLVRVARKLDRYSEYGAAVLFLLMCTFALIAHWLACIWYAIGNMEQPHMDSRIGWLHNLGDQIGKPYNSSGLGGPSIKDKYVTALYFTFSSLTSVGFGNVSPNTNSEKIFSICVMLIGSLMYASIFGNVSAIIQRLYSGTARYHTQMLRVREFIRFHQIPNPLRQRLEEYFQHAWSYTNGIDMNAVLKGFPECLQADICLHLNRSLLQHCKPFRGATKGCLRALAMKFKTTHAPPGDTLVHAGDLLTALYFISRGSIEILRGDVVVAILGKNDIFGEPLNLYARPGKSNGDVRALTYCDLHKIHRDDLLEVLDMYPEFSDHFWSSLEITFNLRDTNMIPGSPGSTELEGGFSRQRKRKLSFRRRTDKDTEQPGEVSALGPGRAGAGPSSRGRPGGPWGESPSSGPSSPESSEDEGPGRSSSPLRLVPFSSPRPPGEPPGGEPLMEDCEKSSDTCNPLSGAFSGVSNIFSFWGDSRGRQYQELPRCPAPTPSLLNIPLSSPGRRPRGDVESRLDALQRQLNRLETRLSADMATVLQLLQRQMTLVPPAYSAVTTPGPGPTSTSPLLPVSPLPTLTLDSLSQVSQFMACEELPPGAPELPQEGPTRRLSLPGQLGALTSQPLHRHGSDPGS
T2 sequence (P10632 whole entry): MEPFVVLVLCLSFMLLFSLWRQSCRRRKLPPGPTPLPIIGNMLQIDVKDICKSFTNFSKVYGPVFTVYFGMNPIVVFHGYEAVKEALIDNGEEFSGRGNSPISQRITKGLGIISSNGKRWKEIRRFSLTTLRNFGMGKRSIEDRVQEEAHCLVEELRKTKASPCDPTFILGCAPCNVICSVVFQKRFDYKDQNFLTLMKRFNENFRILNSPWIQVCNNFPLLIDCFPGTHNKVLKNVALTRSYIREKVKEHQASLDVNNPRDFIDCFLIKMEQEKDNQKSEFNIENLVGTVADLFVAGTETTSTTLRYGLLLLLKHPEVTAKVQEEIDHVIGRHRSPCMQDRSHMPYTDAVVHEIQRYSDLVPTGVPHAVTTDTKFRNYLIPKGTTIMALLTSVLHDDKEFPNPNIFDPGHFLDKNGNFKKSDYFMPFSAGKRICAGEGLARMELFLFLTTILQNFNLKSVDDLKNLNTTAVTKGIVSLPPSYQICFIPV
T3 sequence (P25021 whole entry): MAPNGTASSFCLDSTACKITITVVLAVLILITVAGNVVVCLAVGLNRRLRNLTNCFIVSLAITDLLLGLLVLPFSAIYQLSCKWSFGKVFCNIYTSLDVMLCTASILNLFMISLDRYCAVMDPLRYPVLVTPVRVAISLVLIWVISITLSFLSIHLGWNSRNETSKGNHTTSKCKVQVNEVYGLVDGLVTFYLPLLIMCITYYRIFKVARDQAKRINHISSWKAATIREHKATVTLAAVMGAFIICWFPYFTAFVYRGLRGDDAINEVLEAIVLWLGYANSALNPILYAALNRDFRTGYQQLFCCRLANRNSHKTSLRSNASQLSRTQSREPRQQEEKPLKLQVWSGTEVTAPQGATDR

In the case of `CCCCCCC(C)(C)c1cc(O)c(C(=O)Nc2ccccc2)c(O)c1` [Compound 5B, 2,6-dihydroxy-4-(2-methyloctan-2-yl)-N-phenylbenzamide], the “weight loss (metric of drug toxicity)” value ([1]; PANC-1 tumor mice, Compound-5B 10 mg/kg i.p. daily, gemcitabine 50 mg/kg i.p. three times a week) was “no significant weight loss”, the “growth of PANC-1 tumors” value ([1]; athymic nu/nu mice, 10 mg/kg i.p. once daily) was “reduced the growth of PANC-1 tumors as effectively as gemcitabine” and the pIC50 [2] was greater than 6.30. The “inhibition of 468 kinases” value [3] was “No significant inhibition”, the pIC50 [4] was 6.12 to 6.19 and the “inhibition of Id-1 expression” value [5] was “significant potency”. The aqueous solubility [6] was “low”, the “inhibition of CYP2C8” value [7] was “some inhibition” and the pIC50 [8] was 6.12 to 6.19. For the same compound, the “binding to the cannabinoid receptors” value [9] was “does not bind”, the pIC50 [10] was 5.30 to 6.00 and the “inhibition of important CYP450 isoforms” value [11] was “does not inhibit”. For the same compound, the pIC50 [12] was greater than 6.30, the pIC50 [13] was greater than 6.30 and the plasma protein binding [14] was “high”. The pIC50 [15] was 6.00 to 6.30, the “inhibition of cardiac channel hERG” value [16] was “no inhibition” and the pIC50 [17] was 6.12 to 6.19. For the same compound, the pIC50 [18] was 6.12 to 6.19.
